From US9023847B2, “Azaheterocyclic compounds” (Merck Patent GmbH, priority 2009, dated 2015) come the findings set out here.

By IC50 is commonly meant the concentration needed to halve the response being measured.

A value given as a limit tells only on which side of the number the result lay.

T1 sequence (P23443 whole entry T412E): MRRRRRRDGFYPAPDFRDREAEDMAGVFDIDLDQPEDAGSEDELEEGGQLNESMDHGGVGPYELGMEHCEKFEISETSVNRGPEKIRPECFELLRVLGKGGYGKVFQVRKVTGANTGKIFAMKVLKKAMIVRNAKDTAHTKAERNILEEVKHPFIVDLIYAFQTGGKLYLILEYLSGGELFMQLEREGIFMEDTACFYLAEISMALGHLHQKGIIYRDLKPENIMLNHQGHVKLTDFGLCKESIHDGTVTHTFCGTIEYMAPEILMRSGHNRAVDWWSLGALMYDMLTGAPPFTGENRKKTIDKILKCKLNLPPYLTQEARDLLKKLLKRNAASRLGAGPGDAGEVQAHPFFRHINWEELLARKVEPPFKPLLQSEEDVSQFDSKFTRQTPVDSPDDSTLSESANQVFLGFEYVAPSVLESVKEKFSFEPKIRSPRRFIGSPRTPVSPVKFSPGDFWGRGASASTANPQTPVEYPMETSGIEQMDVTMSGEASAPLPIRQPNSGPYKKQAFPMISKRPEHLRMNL

This experiment has as its target T1, P70S6K (T412E mutant, Millipore) (Homo sapiens, UniProt P23443, T412E).
T1 construct: purchased Millipore
Briefly: p70S6K enzyme assay. It counts as biochemical. The settings on record: class symbol; 3 nM P70S6K, 24 μM ATP; read-out: IC50 (p70S6K). In a few lines:
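T412E-mutant P70S6K (3 nM) with 24 μM ATP and 1 μM FITC-AHA-AKRRRLSSLRA-OH S6-derived peptide in 100 mM Hepes pH 7.5, 5 mM MgCl2, 1 mM DTT, 0.015% Brij; 90 min at 25° C, EDTA stop. Phosphorylated product and substrate peptide separated and quantified by microfluidic capillary electrophoresis (Caliper LabChip 3000).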
On to `CCNc1cc(C(=O)Nc2cccc(CNC(=O)c3sccc3Nc3ccnc4[nH]ccc34)c2)ccn1` [Example 165, 2-Ethylamino-N-[3-({[3-(1H-pyrrolo[2,3-b]pyridin-4-ylamino)-thiophene-2-carbonyl]-amino}-methyl)-phenyl]-isonicotinamide], for which the IC50 was less than 100 nM. As to `CN(C)CC(NC(=O)c1sccc1Nc1ccnc2[nH]ccc12)c1ccc(F)cc1` (centres unmarked) [Example 166, 3-(1H-Pyrrolo[2,3-b]pyridin-4-ylamino)-thiophene-2-carboxylic acid [2-dimethylamino-1-(4-fluoro-phenyl)-ethyl]-amide], the 50% inhibitory concentration (IC50) was less than 100 nM. `CNCC(NC(=O)c1sccc1Nc1ccnc2[nH]ccc12)c1cccc(F)c1` (centres unmarked) [Example 167, 3-(1H-Pyrrolo[2,3-b]pyridin-4-ylamino)-thiophene-2-carboxylic acid [1-(3-fluoro-phenyl)-2-methylamino-ethyl]-amide]: the IC50 was less than 100 nM.

`CNCC(NC(=O)c1sccc1Nc1ccnc2[nH]ccc12)c1cccc(Cl)c1` (centres unmarked) [Example 168, 3-(1H-Pyrrolo[2,3-b]pyridin-4-ylamino)-thiophene-2-carboxylic acid [1-(3-chloro-phenyl)-2-methylamino-ethyl]-amide]: the IC50 was less than 100 nM. The result for `CNCC(NC(=O)c1sccc1Nc1ccnc2[nH]ccc12)c1ccccc1` (centres unmarked) [Example 169, 3-(1H-Pyrrolo[2,3-b]pyridin-4-ylamino)-thiophene-2-carboxylic acid (2-methylamino-1-phenyl-ethyl)-amide] reads less than 100 nM; that for `NC[C@@H](NC(=O)c1sccc1Nc1ccnc2[nH]ccc12)c1ccccc1` [Example 170, 3-(1H-Pyrrolo[2,3-b]pyridin-4-ylamino)-thiophene-2-carboxylic acid ((S)-2-amino-1-phenyl-ethyl)-amide], less than 100 nM; that for `NC[C@@H](NC(=O)c1sccc1Nc1ccnc2[nH]ccc12)c1cccc(F)c1` [Example 171, 3-(1H-Pyrrolo[2,3-b]pyridin-4-ylamino)-thiophene-2-carboxylic acid [(S)-2-amino-1-(3-fluoro-phenyl)-ethyl]-amide], less than 100 nM. The result for `O=C(NCc1ccccc1)c1sccc1Nc1ncnc2[nH]ccc12` [Example 172, 3-(7H-Pyrrolo[2,3-d]pyrimidin-4-ylamino)-thiophene-2-carboxylic acid benzylamide] reads less than 100 nM; that for `O=C(NCc1cccc(Cl)c1)c1sccc1Nc1ncnc2[nH]ccc12` [Example 173, 3-(7H-Pyrrolo[2,3-d]pyrimidin-4-ylamino)-thiophene-2-carboxylic acid 3-chloro-benzylamide], less than 100 nM; that for `O=C(NCCc1ccccc1)c1sccc1Nc1ncnc2[nH]ccc12` [Example 174, 3-(7H-Pyrrolo[2,3-d]pyrimidin-4-ylamino)-thiophene-2-carboxylic acid phenethylamide], less than 100 nM. Take `O=C(NCCc1cccc(F)c1)c1sccc1Nc1ncnc2[nH]ccc12` [Example 175, 3-(7H-Pyrrolo[2,3-d]pyrimidin-4-ylamino)-thiophene-2-carboxylic acid [2-(3-fluorophenyl)-ethyl]-amide]: the 50% inhibitory concentration (IC50) was less than 100 nM. In the case of `O=C(NCc1cccc(Cl)c1)c1occc1Nc1ncnc2[nH]ccc12` [Example 176, 3-(7H-Pyrrolo[2,3-d]pyrimidin-4-ylamino)-furan-2-carboxylic acid 3-chloro-benzylamide] it was less than 100 nM; in that of `CC(C)(C)OC(=O)N(CCNC(=O)c1occc1Nc1ncnc2[nH]ccc12)Cc1ccccc1` [Example 177], 1000 to 10000 nM. With `Cc1cc(Nc2ncnc3[nH]ccc23)c(C(=O)NCc2cccc(Cl)c2)s1` [Example 178, 5-Methyl-3-(7H-pyrrolo[2,3-d]pyrimidin-4-ylamino)-thiophene-2-carboxylic acid 3-chloro-benzylamide], the IC50 was 100 to 1000 nM. Turning to `O=C(NCCc1ccc(F)cc1)c1sccc1Nc1ncnc2[nH]ccc12` [Example 179, 3-(7H-Pyrrolo[2,3-d]pyrimidin-4-ylamino)-thiophene-2-carboxylic acid [2-(4-fluoro-phenyl)-ethyl]-amide], the IC50 was less than 100 nM. As to `O=C(NCCc1ccc(Br)cc1)c1sccc1Nc1ncnc2[nH]ccc12` [Example 180, 3-(7H-Pyrrolo[2,3-d]pyrimidin-4-ylamino)-thiophene-2-carboxylic acid [2-(4-bromo-phenyl)-ethyl]-amide], the 50% inhibitory concentration (IC50) is less than 100 nM. As for `Cc1ccccc1CCNC(=O)c1sccc1Nc1ncnc2[nH]ccc12` [Example 181, 3-(7H-Pyrrolo[2,3-d]pyrimidin-4-ylamino)-thiophene-2-carboxylic acid (2-o-tolyl-ethyl)-amide], the half-inhibitory concentration (IC50) is less than 100 nM.

For `O=C(NCCc1cccc(Cl)c1)c1sccc1Nc1ncnc2[nH]ccc12` [Example 182, 3-(7H-Pyrrolo[2,3-d]pyrimidin-4-ylamino)-thiophene-2-carboxylic acid [2-(3-chloro-phenyl)-ethyl]-amide], the IC50 is less than 100 nM. The result for `O=C(NCCNCc1ccccc1)c1sccc1Nc1ncnc2[nH]ccc12` [Example 183, 3-(7H-Pyrrolo[2,3-d]pyrimidin-4-ylamino)-thiophene-2-carboxylic acid (2-benzylamino-ethyl)-amide] reads less than 100 nM. Regarding `CC(C)(C)OC(=O)N1CCCC(NC(=O)c2sccc2Nc2ncnc3[nH]ccc23)C1` (centres unmarked) [Example 184, 3-{[3-(7H-Pyrrolo[2,3-d]pyrimidin-4-ylamino)-thiophene-2-carbonyl]-amino}-piperidine-1-carboxylic acid tert-butyl ester], the half-inhibitory concentration (IC50) lay in the range of 100 to 1000 nM.

On to `CNCCNC(=O)c1sccc1Nc1ncnc2[nH]ccc12` [Example 185, 3-(7H-Pyrrolo[2,3-d]pyrimidin-4-ylamino)-thiophene-2-carboxylic acid (2-methylamino-ethyl)-amide], for which the IC50 is 100 to 1000 nM. In the case of `O=C(NC1CCCNC1)c1sccc1Nc1ncnc2[nH]ccc12` (centres unmarked) [Example 186, 3-(7H-Pyrrolo[2,3-d]pyrimidin-4-ylamino)-thiophene-2-carboxylic acid piperidin-3-ylamide], the IC50 was less than 100 nM. With `Cc1c[nH]c2ncnc(Nc3ccsc3C(=O)NCc3cccc(Cl)c3)c12` [Example 187, 3-(5-Methyl-7H-pyrrolo[2,3-d]pyrimidin-4-ylamino)-thiophene-2-carboxylic acid 3-chloro-benzylamide], the half-inhibitory concentration (IC50) was less than 100 nM.
